In patent US7718639B2, “7-hydroxyepiandrosterone having neuroprotective activity” (Hunter-Fleming Limited, priority 2000, dated 2010):

Columns and labels:
[1] = system: CA1 cell layer of organotypic hippocampal slice cultures; assay: Hypoxic neuronal damage in organotypic hippocampal slice cultures (PI fluorescence in CA1); assay type: cell-based, Wistar rat; conditions: for reduction of hypoxic CA1 damage (in words): present pre-
Experimental: Organotypic hippocampal slice cultures were prepared using the basic method of Pringle et al (1996, 1997) modified as follows:
Wistar rat pups (8-11 days old) were decapitated and the hippocampus rapidly dissected into ice-cold Gey's balanced salt solution supplemented with 4.5 mg/ml glucose. Slices were separated and plated onto Millicell CM culture inserts (4 per well) and maintained at 37° C./5% CO2 for 14 days. Maintenance medium consisted of 25% heat-inactivated horse serum, 25% Hank's balanced salt solution (HBSS) and 50% minimum essential medium with added Earle's salts (MEM) supplemented with 1 mM glutamine and 4.5 mg/ml glucose. Medium was changed every 3-4 days.
Experimental hypoxia was performed as described previously (Pringle et al., 1996; 1997). Briefly, cultures were transferred to serum free medium (SFM—75% MEM, 25% HBSS supplemented with 1 mM glutamine and 4.5 mg/ml glucose) containing 5 μg/ml of the fluorescent exclusion dye propidium iodide (PI). Cultures were allowed to equilibrate in SFM for 60 minutes prior to imaging. PI fluorescence was detected using a Leica inverted microscope fitted with a rhodamine filter set. Any cultures in which PI fluorescence was detected at this stage were excluded from further study. Hypoxia was induced by transferring cultures to SFM (+PI) which had been saturated with 95%N2/5%CO2. Culture plates (without lids) were then sealed into an airtight chamber in which the atmosphere was saturated with 95%N2/5%CO2 by continuously blowing through gas at 10 L/min for ten minutes before being sealed and placed in the incubator for 170 mins (total time of hypoxia was therefore 180 mins). At the end of the hypoxic period cultures were returned to normoxic SFM containing PI and placed back in the incubator for 24 hours.
Neuronal damage was assessed as described previously (Pringle et al., 1996; 1997) using either NIH Image 1.60 running on an Apple IIsi computer or OpenLab 2.1 (Improvision) running on a Macintosh G4/400. Images were captured using a monochrome camera and saved onto optical disk for offline analysis. Light transmission images were captured prior to the addition of drugs, and PI fluorescence images recorded at the end of the 24-hour post-hypoxia recovery period. The area of the CA1 cell layer was determined from the transmission image. The area of PI fluorescence in CA1 was measured using the density slice function within NIH image or Openlab, and neuronal damage expressed as the percentage of the CA1 in which PI fluorescence was detected above background.
Steroid compounds were prepared by making an initial 1 mg/ml solution in ethanol and further diluting down in SFM. Compounds were added to the cultures for 45 minutes prior to hypoxia, during the hypoxic episode and during the post-hypoxic recovery period. Control experiments consisted of cultures treated with vehicle alone.

[2] = system: hippocampal CA1 pyramidal cells; assay: Global cerebral ischemia in rats (4 vessel occlusion), surviving CA1 neurons by Nissl staining; assay type: in vivo, male Wistar rats
Experimental: Cerebral ischemia was induced by four-vessel-occlusion (4VO) in male Wistar rats (250-280 g). Both vertebral arteries were occluded by electrocauterization in pentobarbital anesthesia (60 mg/kg i.p.). The animals were allowed to recover for 24 hours with free access to water but not food. The next day the carotid arteries were exposed under 2% halothane in 30% oxygen/70% nitrous oxide anesthesia and were occluded for 10 minutes using microvascular claps. Subsequently, both clamps were removed and both arteries were inspected for immediate reperfusion. During the operation and the following 3 hours normothermia of the animals (37.5Γ0.5° C.) was maintained by using a thermostatically controlled heating blanket connected to a rectal thermometer. For control, in sham-operated animals both vertebral arteries were cauterized in pentobarbital anesthesia and both common carotid arteries were exposed but not clamped under 2% halothane in 30% oxygen/70% nitrous oxide anesthesia the following day. The wound was treated with lidocaine gel and then sutured. The animals were kept under a heating lamp at 30° C. environmental temperature until they regained consciousness.
Seven groups of animals were investigated: • 1. (n=8) steroid compound, 7β-OH EPIA (0.1 mg/kg, i.v. via tail vein, three injections: 15 minutes prior to the induction of ischemia, during ischemia and 5 minutes after reperfusion); • 2. (n=8) steroid compound, 7β-OH EPIA (0.3 mg/kg, i. v. three injections as described in 1.); • 3. (n=8) steroid compound, 7β-OH EPIA (1 mg/kg, i. v., three injections as described in 1.); • 4. (n=8) NBQX (disodium salt, because more water soluble) as reference substance and positive control (TOCRIS, Germany, 30 mg/kg, i. p., three injections as described in 1.); • 5. (n=8) received vehicle (0.9% NaCl, containing 100 μl Ethanol) three injections as described in 1.); • 6. (n=8) ischemia alone; • 7. (n=8) sham operated controls.
The substances were dissolved in 100 μl Ethanol and finally diluted with 0.9% NaCl.
After a survival time of 7 days after ischemia, all animals were perfusion fixed transcardially with 4% paraformaldehyde. The brains were then removed carefully and postfixed in the same fixative for 2 hours. After cryoprotection in 30% sucrose, the brains were rapidly frozen in isopentane and stored at −80° C. Twenty-micrometer cryostat sections comprising the hippocampal formation were Nissl stained with toluidine blue or NeuroTrace fluorescence.
The severity of neuronal damage in the hippocampal CA1 region after ischemia was evaluated by the number of surviving neurons using Nissl staining. The mean number of morphologically intact neurons per 400 μm length was calculated in CA1 region for each group. […] The data were statistically analyzed by paired Student's t-test. […]

[3] = Experiment 1, 100 nM, compound present pre-, during and post-hypoxia, control hypoxia 25.5 ± 6.4
[4] = Experiment 1, 100 nM, during and post-hypoxia
[5] = Experiment 2, 1 nM, control hypoxia 31.9 ± 4.7
[6] = Experiment 2, 10 nM, control hypoxia 31.9 ± 4.7
[7] = Experiment 2, 100 nM, control hypoxia 31.9 ± 4.7

SMILES	% Damage in CA1 [1, 3]	reduction of hypoxic CA1 damage (in words) [1, 4]	neuroprotective effect against hypoxic damage (in words) ([1]; Experiment 2, 1 nM)	% Damage in CA1 [1, 5]	neuroprotective effect against hypoxic damage (in words) ([1]; Experiment 2, 10 nM)	% Damage in CA1 [1, 6]	neuroprotective effect against hypoxic damage (in words) ([1]; Experiment 2, 100 nM)	% Damage in CA1 [1, 7]	neuroprotective effect on CA1 pyramidal cells compared to the sham operated group ([2]; 0.1 mg/kg i.v., three injections, 10 min global ischemia, 7 days survival, p=0.01)	neuroprotective effect on CA1 pyramidal cells compared to the sham operated group ([2]; 0.3 mg/kg i.v., three injections, 10 min global ischemia, 7 days survival, p=0.0008)	neuroprotective effect on CA1 pyramidal cells (in words) ([2]; 1.0 mg/kg i.v., three injections, 10 min global ischemia, 7 days survival)	behavioral abnormalities of the animals ([2]; injected i.v. prior, during and after ischemia, all experiments)
CC12CCC3C(C1CCC2=O)[C@H](O)C[C@H]1C[C@@H](O)CCC31C (stereo partly drawn) [7αOH-EPIA, 7α-Hydroxy-EPIA]	4.0 ± 2.9 %	significantly reduced	no effect	28.8 ± 5.8%	not-statistically significant reduction	21.9 ± 8.1%	significantly protective	11.8 ± 2.8 %	–	–	–	–
CC12CCC3C(C1CCC2=O)[C@@H](O)C[C@H]1C[C@@H](O)CCC31C (stereo partly drawn) [7βOH-EPIA, 7β-hydroxyepiandrosterone]	9.0 ± 4.7 %	significantly reduced	activity was lost	20.6 ± 7.2%	significantly neuroprotective	11.9 ± 4.7 %	significantly neuroprotective	14.3 ± 5.0 %	74.8%	83.9%	only a tendency to neuroprotection, but the effect was not significant	never observed any behavioral abnormalities
